Assay results published in the supplement of paper PMC10307832.

Experiments:
Test in all cases: relative viability (nuclei count vs DMSO), 5 days (fraction); higher = more cells survive
A549 = test system: A549
In short: (§1)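 Relative viability equals treated-well nuclei counts divided by vehicle-well nuclei counts. Counts came from 4× images of lung cancer cell lines grown in 1536-well plates for 5 days after pin-tool dosing on the day after seeding. Dosing used one drug alone or a fixed anchor-drug dose plus five library-drug doses (not always all listed) in √10 steps, and values are medians of duplicate plates.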

Calu-6 = test system: Calu-6
In short: as §1

EBC-1 = test system: EBC-1
In short: as §1

IA-LM = test system: IA-LM
In short: as §1

NCI-H1299 = test system: NCI-H1299
In short: as §1

NCI-H1703 = test system: NCI-H1703
In short: as §1

NCI-H2126 = test system: NCI-H2126
In short: as §1

Row | Compound | relative viability (A549; first compound 0.04 µM) | relative viability (A549; first compound 0.1265 µM) | relative viability (A549; first compound 0.4 µM) | relative viability (A549; first compound 1.265 µM) | relative viability (A549; first compound 4 µM) | relative viability (Calu-6; first compound 0.04 µM) | relative viability (Calu-6; first compound 0.1265 µM) | relative viability (Calu-6; first compound 0.4 µM) | relative viability (Calu-6; first compound 1.265 µM) | relative viability (Calu-6; first compound 4 µM) | relative viability (EBC-1; first compound 0.04 µM) | relative viability (EBC-1; first compound 0.1265 µM) | relative viability (EBC-1; first compound 0.4 µM) | relative viability (EBC-1; first compound 1.265 µM) | relative viability (EBC-1; first compound 4 µM) | relative viability (IA-LM; first compound 0.04 µM) | relative viability (IA-LM; first compound 0.1265 µM) | relative viability (IA-LM; first compound 0.4 µM) | relative viability (IA-LM; first compound 1.265 µM) | relative viability (IA-LM; first compound 4 µM) | relative viability (NCI-H1299; first compound 0.04 µM) | relative viability (NCI-H1299; first compound 0.1265 µM) | relative viability (NCI-H1299; first compound 0.4 µM) | relative viability (NCI-H1299; first compound 1.265 µM) | relative viability (NCI-H1299; first compound 4 µM) | relative viability (NCI-H1703; first compound 0.04 µM) | relative viability (NCI-H1703; first compound 0.1265 µM) | relative viability (NCI-H1703; first compound 0.4 µM) | relative viability (NCI-H1703; first compound 1.265 µM) | relative viability (NCI-H1703; first compound 4 µM) | relative viability (NCI-H2126; first compound 0.04 µM) | relative viability (NCI-H2126; first compound 0.1265 µM) | relative viability (NCI-H2126; first compound 0.4 µM) | relative viability (NCI-H2126; first compound 1.265 µM) | relative viability (NCI-H2126; first compound 4 µM)
1 | Clc1ccc(Nc2nnc(Cc3ccncc3)c3ccccc23)cc1 [Vatalanib] + CS(=O)(=O)CCNCc1ccc(-c2ccc3ncnc(Nc4ccc(OCc5cccc(F)c5)c(Cl)c4)c3c2)o1 [Lapatinib] (partner 2 µM) | 0.991 | 0.918 | 1.05 | 1 | 1.01 | 1.14 | 1.02 | 1.09 | 1.05 | 1.07 | 0.165 | 0.204 | 0.22 | 0.232 | 0.202 | 0.869 | 0.816 | 0.885 | 0.674 | 0.674 | 0.96 | 0.961 | 0.931 | 0.939 | 0.969 | 1.28 | 1.05 | 1.4 | 0.611 | 0.435 | 0.787 | 0.823 | 0.773 | 0.744 | 0.71
2 | Clc1ccc(Nc2nnc(Cc3ccncc3)c3ccccc23)cc1 [Vatalanib] + CS(=O)(=O)N1CCN(Cc2cc3nc(-c4cccc5[nH]ncc45)nc(N4CCOCC4)c3s2)CC1 [Pictilisib] (partner 1 µM) | 0.495 | 0.506 | 0.502 | 0.52 | 0.505 | 0.891 | 0.907 | 0.986 | 0.883 | 0.835 | 0.346 | 0.393 | 0.45 | 0.276 | 0.411 | 0.368 | 0.354 | 0.319 | 0.337 | 0.36 | 0.835 | 0.703 | 0.967 | 0.66 | 0.857 | 0.229 | 0.206 | 0.242 | 0.209 | 0.227 | 0.488 | 0.512 | 0.524 | 0.47 | 0.494
3 | Clc1ccc(Nc2nnc(Cc3ccncc3)c3ccccc23)cc1 [Vatalanib] + C[C@@H](Oc1cc(-c2cnn(C3CCNCC3)c2)cnc1N)c1c(Cl)ccc(F)c1Cl [Crizotinib] (partner 1 µM) | 0.857 | 0.843 | 0.907 | 0.597 | 0.713 | 0.756 | 0.662 | 0.779 | 0.779 | 0.643 | 0.218 | 0.178 | 0.176 | 0.191 | 0.21 | 0.649 | 0.875 | 0.724 | 0.743 | 0.721 | 0.956 | 0.96 | 0.957 | 0.964 | 0.965 | 0.669 | 0.77 | 0.866 | 0.524 | 0.303 | 0.977 | 1.03 | 1.05 | 1.07 | 0.992
